The assay has as its target T1, intestinal maltase.
T1 construct: gene Mgam; native, crude extract of rat intestinal acetone powder (Sigma)
As to the kind of experiment: glucose release from maltose, glucose oxidase kit. Type of assay: biochemical, Rattus norvegicus. As to conditions: 37 mM maltose (70 µL), 0.1 M phosphate pH 6.9, 37 °C, 30 min.

The molecule `C[C@H]1O[C@H](O[C@H]2[C@H](O)[C@@H](O)[C@@H](O[C@H]3[C@H](O)[C@@H](O)C(O)O[C@@H]3CO)O[C@@H]2CO)[C@H](O)[C@@H](O)[C@@H]1N[C@H]1C=C(CO)[C@@H](O)[C@H](O)[C@H]1O` (some centres unmarked) [Acarbose] showed an IC50 of 2.7 ± 0.1 µM. As for `C[C@@H]1O[C@@H](OC[C@H]2O[C@@H](Oc3cc4c(O)cc(O)cc4[o+]c3-c3ccc(O)c(O)c3)[C@H](O)[C@@H](O)[C@@H]2O)[C@H](O)[C@H](O)[C@H]1O` [C3R, cyanidin-3-rutinoside], the figure is 2320 µM.

Broadly, the IC50 is the concentration that gives 50% inhibition. Higher therefore signals weaker potency.

These data come from article PMC3128364 (Journal of Clinical Biochemistry and Nutrition, 2011).
